Data from patent US9481654B2, “Compositions and methods for inhibition of the JAK pathway” (Rigel Pharmaceuticals, Inc., priority 2006, dated 2016).
Counter-ions that a name gives are not always drawn.

What follows are molecules tested on IL-4 stimulated CD23 upregulation in human Ramos B cells (JAK-1/JAK-3, Stat-6) (assay: Assay for Ramos B-Cell Line Stimulated with IL-4 (CD23 upregulation, FACS)). Settings: Table III Example 3.
Format: cell-based
From the text: One means of assaying for such inhibition is detection of the effect of the 2,4-pyrimidinediamine compounds on the upregulation of downstream gene products. In the Ramos/IL4 assay, B-cells are stimulated with the cytokine Interleukin-4 (IL-4) leading to the activation of the JAK/Stat pathway through phosphorylation of the JAK family kinases, JAK1 and JAK3, which in turn phosphorylate and activate the transcription factor Stat-6. […] To study the effect of inhibitors (e.g., the 2,4-substituted pyrimindinediamine compounds described herein) on the JAK1 and JAK3 kinases, human Ramos B cells are stimulated with human IL-4. 20 to 24 hours post stimulation, cells are stained for upregulation of CD23 and analyzed using flow cytometry (FACS).
B-cells stimulated with cytokine Interleukin-4 (IL-4) activate the JAK/Stat pathway through phosphorylation of the JAK family kinases, JAK-1 and JAK-3, which in turn phosphorylate and activate the transcription factor Stat-6. […] To study the effect of inhibitors on the JAK family kinases, human Ramos B cells are stimulated with human IL-4.
Cells were maintained at a density of 3.5×10^5. The day before the experiment, Ramos B-cells were diluted to 3.5×10^5 cells/mL to ensure that they were in a logarithmic growth phase.
Cells were spun down and suspended in RPMI with 5% serum. 5×10^4 cells were used per point in a 96-well tissue culture plate. Cells were pre-incubated with compound or DMSO (Sigma-Aldrich, St. Louis, Mo., Cat No. D2650) vehicle control for 1 hour in a 37° C. incubator. Cells were then stimulated with IL-4 (Peprotech Inc., Rocky Hill, N.J., Cat No. 200-04) for a final concentration of 50 units/mL for 20-24 hours. […] Detection was performed using a BD LSR I System Flow Cytometer, purchased from Becton Dickinson Biosciences of San Jose, Calif.

Compound | IC50 [nM]
CC(=O)NS(=O)(=O)c1cccc(Nc2ncc(C)c(Nc3cccc(CN(C(C)=O)S(=O)(=O)C4CC4)c3)n2)c1 [Compound I-193, N2-(3-acetamidosulfonyl)phenyl-N4-[3-(N-acetyl-N-cyclopropylsulfonyl)aminomethyl]phenyl-5-methyl-2,4-pyrimidinediamine] | 1890
CCCC(=O)NS(=O)(=O)c1cccc(Nc2ncc(C)c(Nc3cccc(CN(C(=O)CCC)S(=O)(=O)C4CC4)c3)n2)c1 [Compound I-203, N2-(3-butyrylaminosulfonyl)phenyl-N4-[3-(N-butyryl-N-cyclopropylsulfonyl)aminomethyl]phenyl-5-methyl-2,4-pyrimidinediamine] | 3020
Cc1cnc(Nc2ccc(S(=O)(=O)NC(=O)C(C)C)cc2)nc1Nc1ccc(CN(C(=O)C(C)C)S(=O)(=O)C2CC2)cc1 [Compound I-199, N4-[4-(N-cyclopropylsulfonyl-N-isobutyryl)aminomethyl]phenyl-N2-(4-isobutyrylaminosulfonyl)phenyl-5-methyl-2,4-pyrimidinediamine] | 1270
CC(=O)NS(=O)(=O)c1ccc(Nc2ncc(C)c(Nc3ccc(CN(C(C)=O)S(=O)(=O)C4CC4)cc3)n2)cc1 [Compound I-194, N2-(4-acetamidosulfonyl)phenyl-N4-[4-(N-acetyl-N-cyclopropylsulfonyl)aminomethyl]phenyl-5-methyl-2,4-pyrimidinediamine] | 1650
Cc1cnc(Nc2cccc(S(=O)(=O)NC3(C(=O)O)CCCC3)c2)nc1Nc1cccc(CNS(=O)(=O)C2CC2)c1 [Compound I-145, N2-[3-N-(cycloleucine)aminosulfonyl]phenyl-N4-(3-cyclopropylsulfonylaminomethyl)phenyl-5-methyl-2,4-pyrimidinediamine hydrogen chloride salt] | 8540
CCCCC(=O)NS(=O)(=O)c1cccc(Nc2ncc(C)c(Nc3cccc(CN(C(=O)CCCC)S(=O)(=O)C4CC4)c3)n2)c1 [Compound I-220, N4-[3-(N-cyclopropylsulfonyl-N-valeryl)aminomethyl]phenyl-5-methyl-N2-(3-valerylaminosulfonyl)phenyl-2,4-pyrimidinediamine] | 2020
CCC(=O)NS(=O)(=O)c1cccc(Nc2ncc(C)c(Nc3cccc(CN(C(=O)CC)S(=O)(=O)C4CC4)c3)n2)c1 [Compound I-226, N4-[3-(N-cyclopropylsulfonyl-N-propionyl)aminomethyl]phenyl-5-methyl-N2-(3-propionylaminosulfonyl)phenyl-2,4-pyrimidinediamine Choline salt] | 5490
CCC(=O)NS(=O)(=O)c1ccc(Nc2ncc(C)c(Nc3ccc(CN(C(=O)CC)S(=O)(=O)CC)cc3)n2)cc1 [Compound I-91, N4-[4-(N-ethylsulfonyl-N-propionyl)aminomethyl]phenyl-5-methyl-N2-(4-propionylaminosulfonyl)phenyl-2,4-pyrimidinediamine] | 1290
NS(=O)(=O)c1ccc(Nc2ncc(F)c(Nc3ccc4c(c3)CN(S(=O)(=O)C3CC3)C4)n2)cc1 [II-6, N2-(4-Aminosulfonyl-phenyl)-N4-[(2-cyclopropylsulfonyl)-isoindolin-5-yl]-5-fluoro-2,4-pyrimidinediamine] | 640
Cc1cnc(Nc2cccc(S(=O)(=O)NC(=O)CNC(=O)OCc3ccccc3)c2)nc1Nc1cccc(CNS(=O)(=O)C2CC2)c1 [Compound I-142, N2-{3-N-[2-(benzoxycarbonylamino)-1-oxoethyl]aminosulfonyl}phenyl-N4-(3-cyclopropylsulfonylaminomethyl)phenyl-5-methyl-2,4-pyrimidinediamine] | 5620
CCCC(=O)NS(=O)(=O)c1cccc(Nc2ncc(C)c(Nc3cccc(CN(C(=O)CCC)S(=O)(=O)C4CC4)c3)n2)c1 [Compound I-222, N2-(3-butyrylaminosulfonyl)phenyl-N4-[3-(N-butyryl-N-cyclopropylsulfonyl)aminomethyl]phenyl-5-methyl-2,4-pyrimidinediamine Choline salt] | 3030
Cc1cnc(Nc2cccc(S(=O)(=O)N[C@H](C(=O)O)C(C)C)c2)nc1Nc1cccc(CNS(=O)(=O)C2CC2)c1 [Compound I-146, N2-[3-N-(L-Val)aminosulfonyl]phenyl-N4-(3-cyclopropylsulfonylaminomethyl)phenyl-5-methyl-2,4-pyrimidinediamine hydrogen chloride salt] | 12300
CCC(=O)NS(=O)(=O)c1cccc(Nc2ncc(C)c(Nc3cccc(CNS(=O)(=O)C4CC4)c3)n2)c1 [Compound I-136, N4-(3-cyclopropylsulfonylaminomethyl)phenyl-5-methyl-N2-(3-propionylaminosulfonyl)phenyl-2,4-pyrimidinediamine] | 1630
Cc1cnc(Nc2cccc(S(=O)(=O)NC(=O)C(C)C)c2)nc1Nc1cccc(CN(C(=O)C(C)C)S(=O)(=O)C2CC2)c1 [Compound I-198, N4-[3-(N-cyclopropylsulfonyl-N-isobutyryl)aminomethyl]phenyl-N2-(3-isobutyrylaminosulfonyl)phenyl-5-methyl-2,4-pyrimidinediamine] | 2050
CCC(=O)NS(=O)(=O)c1cccc(Nc2ncc(C)c(Nc3cccc(CN(C(=O)CC)S(=O)(=O)C4CC4)c3)n2)c1 [Compound I-93, N4-[3-(N-cyclopropylsulfonyl-N-propionyl)aminomethyl]phenyl-5-methyl-N2-(3-propionylaminosulfonyl)phenyl-2,4-pyrimidinediamine] | 2810
CCC(=O)NS(=O)(=O)c1cccc(Nc2ncc(F)c(Nc3ccc(CN(C(=O)CC)S(=O)(=O)C4CC4)cc3)n2)c1 [Compound I-58, N4-[4-(N-cyclopropylsulfonyl-N-propionyl)aminomethyl]phenyl-5-fluoro-N2-(3-propionylaminosulfonyl)phenyl-2,4-pyrimidinediamine] | 11100

Same assay, conditions: Table III Example 3, sodium salt

Compound | IC50 [nM]
Cc1cnc(Nc2cccc(S(=O)(=O)NC(=O)[C@H](Cc3ccccc3)NC(=O)OCc3ccccc3)c2)nc1Nc1cccc(CNS(=O)(=O)C2CC2)c1 [Compound I-135, N2-[3-N-(Cbz-L-Phe)aminosulfonyl]phenyl-N4-(3-cyclopropylsulfonylaminomethyl)phenyl-5-methyl-2,4-pyrimidinediamine sodium salt] | 1000
Cc1cnc(Nc2cccc(S(=O)(=O)NC(=O)C(C)C)c2)nc1Nc1cccc(CN(C(=O)C(C)C)S(=O)(=O)C2CC2)c1 [Compound I-200, N4-[3-(N-cyclopropylsulfonyl-N-isobutyryl)aminomethyl]phenyl-N2-(3-isobutyrylaminosulfonyl)phenyl-5-methyl-2,4-pyrimidinediamine sodium salt] | 2310
Cc1cnc(Nc2ccc(S(=O)(=O)NC(=O)C(C)C)cc2)nc1Nc1ccc(CN(C(=O)C(C)C)S(=O)(=O)C2CC2)cc1 [Compound I-201, N4-[4-(N-cyclopropylsulfonyl-N-isobutyryl)aminomethyl]phenyl-N2-(4-isobutyrylaminosulfonyl)phenyl-5-methyl-2,4-pyrimidinediamine sodium salt] | 1210
CCC(=O)NS(=O)(=O)c1cccc(Nc2ncc(C)c(Nc3cccc(CNS(=O)(=O)C4CC4)c3)n2)c1 [Compound I-137, N4-(3-cyclopropylsulfonylaminomethyl)phenyl-5-methyl-N2-(3-propionylaminosulfonyl)phenyl-2,4-pyrimidinediamine sodium salt] | 1910
CCC(=O)NS(=O)(=O)c1cccc(Nc2ncc(F)c(Nc3ccc(CNS(=O)(=O)C4CC4)cc3)n2)c1 [Compound I-61, N4-(4-cyclopropylsulfonylaminomethyl)phenyl-5-fluoro-N2-(3-propionylaminosulfonyl)phenyl-2,4-pyrimidinediamine sodium salt] | 18900
CCC(=O)NS(=O)(=O)c1ccc(Nc2ncc(C)c(Nc3ccc(CN(C(=O)CC)S(=O)(=O)CC)cc3)n2)cc1 [Compound I-92, N4-[4-(N-ethylsulfonyl-N-propionyl)aminomethyl]phenyl-5-methyl-N2-(4-propionylaminosulfonyl)phenyl-2,4-pyrimidinediamine sodium salt] | 960
CC(=O)NS(=O)(=O)c1ccc(Nc2ncc(C)c(Nc3ccc(CN(C(C)=O)S(=O)(=O)C4CC4)cc3)n2)cc1 [Compound I-197, N2-(4-acetamidosulfonyl)phenyl-N4-[4-(N-acetyl-N-cyclopropylsulfonyl)aminomethyl]phenyl-5-methyl-2,4-pyrimidinediamine sodium salt] | 1550
Cc1cnc(Nc2cccc(S(=O)(=O)NC(=O)CNC(=O)OC(C)(C)C)c2)nc1Nc1cccc(CNS(=O)(=O)C2CC2)c1 [Compound I-141, N2-{3-N-[2-(t-butoxycarbonylamino)-1-oxoethyl]aminosulfonyl}phenyl-N4-(3-cyclopropylsulfonylaminomethyl)phenyl-5-methyl-2,4-pyrimidinediamine sodium salt] | 4710
CCC(=O)NS(=O)(=O)c1cccc(Nc2ncc(C)c(Nc3cccc(CN(C(=O)CC)S(=O)(=O)C4CC4)c3)n2)c1 [Compound I-94, N4-[3-(N-cyclopropylsulfonyl-N-propionyl)aminomethyl]phenyl-5-methyl-N2-(3-propionylaminosulfonyl)phenyl-2,4-pyrimidinediamine sodium salt] | 2500
